{"source": "patent US20190133115A1", "about": "“PESTICIDAL SOLUBLE MICRO-EMULSION CONCENTRATE SEED TREATMENT FORMULATIONS” (priority 2017, published 2019)", "origin": "cited, not measured here", "settings": "in alcohols, e.g., ethanol, acetone, and toluene"}
{"smiles": "COCC(=O)N(c1c(C)cccc1C)C(C)C(=O)OC", "note": "(racemic) [Metalaxyl, methyl N-(methoxyacetyl)-N-(2,6-xylyl)-DL-alanate]", "values": [{"measurement": "solubility", "value": "soluble"}]}
